The source of these data is patent US7429612B2, “Indoline compound and medicinal use thereof” (Kyoto Pharmaceutical Industries, Ltd., priority 2002, dated 2008).

Structures can show the parent of a compound that is named as a salt.

The test system of one test is hepatic ACAT. As to the kind of experiment: Hepatic ACAT inhibitory activity (rabbit liver microsomes, [1-14C]-oleoyl CoA). Particulars: Concentration: 10^-6 M; inhibition of cholesteryl oleate production vs control. The format is biochemical, Japanese white rabbits. As for the experimental part: A high cholesterol feed [a feed added with cholesterol (1%), Clea Japan, Inc.] was fed to male Japanese white rabbits weighing 2-2.5 kg at 100 g per day and the rabbits were bred for 4 weeks. The rabbits were killed by bleeding under anesthesia and liver was removed. The liver was homogenated, and the homogenate was centrifuged at 4° C. and 10,000 rpm for 15 min. The obtained supernatant was further centrifuged at 4° C. and 41,000 rpm for 60 minutes to give microsomal fractions. The microsomal suspension as an enzyme sample, dimethyl sulfoxide (DMSO, […]) or a test compound dissolved in DMSO (test compound solution 3 μl), and reaction substrate [1-^14C]-oleoyl CoA were added to 0.15 M phosphate buffer to the total amount of 300 μl. After incubation at 37° C. for 20 minutes, a chloroform-methanol mixture was added to stop the reaction. Water was added thereto and mixed, and the chloroform layer was separated. The solvent was evaporated to dryness, and the residue was redissolved in n-hexane. The mixture was subjected to thin layer chromatography using a silica gel plate. The spots of cholesteryl oleate on the silica gel plate were scraped, and quantitatively assayed on lo a liquid scintillation counter.
For orientation: Liver microsomes are vesicles of endoplasmic reticulum, rich in cytochrome P450 enzymes.

The test system of test [1] is THP-1 cell-derived macrophages. As to the kind of experiment: THP-1 cell-derived macrophage foam cell formation suppressing effect (cholesterol ester accumulation inhibitory effect). In kind it is cell-based. Particulars: Concentration: 10^-6 M, acetyl LDL, 3 days culture; for inhibition at 1 µM: Homo sapiens, THP-1, 72 h, read-out: foam cell formation inhibitory rate (%). The procedure:
THP-1 (Dainippon Pharmaceutical Co., Ltd.) cells were passage cultured in RPMI-1640 medium supplemented with 10% fetal bovine serum (FBS), and the cells of passages 6-13 after purchase were used. The cells were suspended in FBS-containing RPMI-1640 medium to give a suspension having a concentration of 4×10^5 cells/mL. The cell suspension was inoculated to a 12 well microplate by 1 mL, and treated with phorbol 12-myristate 13-acetate (PMA, 200 nM) as a differentiation inducing agent into macrophage. Then acetyl LDL 400 μg/mL prepared separately from plasma-derived LDL of genetically hyperlipidemia rabbit (KHC rabbit, Japan Laboratory Animals, Inc.) was added. In addition, a test compound dissolved in DMSO and diluted with FBS-containing RPMI-1640 medium or a control solvent was added. After culture in a carbon dioxide incubator for 3 days, the cells were washed with phosphate buffered physiological saline (pH 7.0), and the lipid was extracted with n-hexane/isopropanol (3:2). The cells were dissolved in 1M-NaOH and the protein amount was measured. The free cholesterol and cholesterol ester in a lipid extraction sample was measured by the method of Kunitomo et al. (1983). The cholesterol ester was compared between the control cell and the test compound-treated cells, and the cholesterol ester accumulation inhibitory rate of the test compound was calculated.

`CCCCCCCCN1CCc2c(C)c([N+](=O)[O-])c(C)c(NC(=O)C(C)(C)C)c21` [Example 1, N-(4,6-dimethyl-5-nitro-1-octylindolin-7-yl)-2,2-dimethylpropanamide]: in the test with hepatic ACAT, the “Hepatic ACAT inhibitory ratio (%)” value was determined as 97.4%.
For `CCCCCCCCN1CCc2c(C)c(NS(=O)(=O)NC(C)=O)c(C)c(NC(=O)C(C)(C)C)c21` [Example 3, N-[5-(N-acetylsulfamoylamino)-4,6-dimethyl-1-octylindolin-7-yl]-2,2-dimethylpropanamide], in the test with hepatic ACAT, the “Hepatic ACAT inhibitory ratio (%)” value is on record as 89.3%.
For the compound `CCCCCCCCN1CCc2c(C)c(NS(=O)(=O)NC(=O)OC)c(C)c(NC(=O)C(C)(C)C)c21` [Example 4, N-[5-(N-methoxycarbonylsulfamoylamino)-4,6-dimethyl-1-octylindolin-7-yl]-2,2-dimethylpropanamide], the “Hepatic ACAT inhibitory ratio (%)” value with hepatic ACAT was found to be 75.8%.
Regarding `CCCCCCCCN1CCc2c(C)c(NS(N)(=O)=O)c(C)c(NC(=O)C(C)(C)C)c21.Cl` [Example 6, N-(4,6-dimethyl-1-octyl-5-sulfamoylaminoindolin-7-yl)-2,2-dimethylpropanamide hydrochloride], the “Hepatic ACAT inhibitory ratio (%)” value in the test with hepatic ACAT was determined as 97.4%. The inhibition at 1 µM in test [1] was determined as 91.2%.
On to `CCCCCCCCN1CCc2c(C)c(NC(N)=O)c(C)c(NC(=O)C(C)(C)C)c21.Cl` [Example 7, N-(4,6-dimethyl-1-octyl-5-ureidoindolin-7-yl)-2,2-dimethylpropanamide hydrochloride], for which the “Hepatic ACAT inhibitory ratio (%)” value with hepatic ACAT is 95.7%. Besides, the inhibition at 1 µM in test [1] was found to be 90.9%.
For `CCCCCCCCCC(C)(C)C(=O)Nc1c(C)c2c(c(NS(C)(=O)=O)c1C)NCC2` [Example 8, N-(7-methanesulfonylamino-4,6-dimethylindolin-5-yl)-2,2-dimethylundecanamide], the “Hepatic ACAT inhibitory ratio (%)” value in the test on hepatic ACAT is recorded as 96.3%. Also, the inhibition at 1 µM in test [1] worked out at 89.2%.
For the compound `CCCCCCCCCC(C)(C)C(=O)Nc1c(C)c2c(c(NS(C)(=O)=O)c1C)N(C)CC2` [Example 9, N-(7-methanesulfonylamino-1,4,6-trimethylindolin-5-yl)-2,2-dimethylundecanamide], in test [1], the inhibition at 1 µM is 70.9%.
Consider `CCCCCCCCN1CCc2c(C)c(CNS(C)(=O)=O)c(C)c(NC(=O)C(C)(C)C)c21.Cl` [Example 10, N-(5-methanesulfonylaminomethyl-4,6-dimethyl-1-octylindolin-7-yl)-2,2-dimethylpropanamide hydrochloride], for which the “Hepatic ACAT inhibitory ratio (%)” value in the test on hepatic ACAT turned out to be 87.3%.
`CCCCN1CCc2c(C)c(NS(N)(=O)=O)c(C)c(NC(=O)C(C)(C)C)c21.Cl` [Example 19, N-(1-butyl-4,6-dimethyl-5-sulfamoylaminoindolin-7-yl)-2,2-dimethylpropanamide hydrochloride]: in the test on hepatic ACAT, the “Hepatic ACAT inhibitory ratio (%)” value stood at 93.4%. Besides, the inhibition at 1 µM in test [1] was 73.3%.
For the compound `Cc1c2c(c(NC(=O)C(C)(C)C)c(C)c1NS(N)(=O)=O)N(CCC(C)C)CC2.Cl` [Example 20, N-[1-(3-methylbutyl)-4,6-dimethyl-5-sulfamoylaminoindolin-7-yl]-2,2-dimethylpropanamide hydrochloride], in the test with hepatic ACAT, the “Hepatic ACAT inhibitory ratio (%)” value amounted to 95.7%. In test [1], the inhibition at 1 µM is 74.7%.
Regarding `Cc1c2c(c(NC(=O)C(C)(C)C)c(C)c1NS(N)(=O)=O)N(CC(C)C)CC2.Cl` [Example 21, N-[1-(2-methylpropyl)-4,6-dimethyl-5-sulfamoylaminoindolin-7-yl]-2,2-dimethylpropanamide hydrochloride], in the test on hepatic ACAT, the “Hepatic ACAT inhibitory ratio (%)” value is given as 92.7%. In addition, the inhibition at 1 µM in test [1] was found to be 77.1%.
With `CCCCCCCCCC(C)(C)C(=O)Nc1c(C)c2c(c(NS(=O)(=O)C(C)C)c1C)NCC2.Cl` [Example 23, N-[4,6-dimethyl-7-(2-propanesulfonylamino)indolin-5-yl]-2,2-dimethylundecanamide hydrochloride], in the test with hepatic ACAT, the “Hepatic ACAT inhibitory ratio (%)” value is recorded as 96.2%. Further, the inhibition at 1 µM in test [1] was found to be 90.5%.
For the compound `CCCCCCC(C)(C)C(=O)Nc1c(C)c2c(c(NS(=O)(=O)C(C)C)c1C)NCC2` [Example 24, N-[4,6-dimethyl-7-(2-propanesulfonylamino)indolin-5-yl]-2,2-dimethyloctanamide], the “Hepatic ACAT inhibitory ratio (%)” value in the test with hepatic ACAT is on record as 95.7%. Further, the inhibition at 1 µM in test [1] was found to be 90.5%.
With `CCCCCCCCCC(C)(C)C(=O)Nc1c(C)c2c(c(NS(=O)(=O)c3ccc(C)cc3)c1C)NCC2` [Example 25, N-[4,6-dimethyl-7-(p-toluene)sulfonylaminoindolin-5-yl]-2,2-dimethylundecanamide], the “Hepatic ACAT inhibitory ratio (%)” value in the test on hepatic ACAT is 94.3%. Further, in test [1], the “foam cell formation inhibitory rate (%)” value worked out at 89.4%.
For `CCCCCCCCCC(C)(C)C(=O)Nc1c(C)c2c(c(NS(N)(=O)=O)c1C)NCC2.Cl` [Example 26, N-(4,6-dimethyl-7-sulfamoylaminoindolin-5-yl)-2,2-dimethylundecanamide hydrochloride], in the test on hepatic ACAT, the “Hepatic ACAT inhibitory ratio (%)” value is on record as 95.4%. In test [1], the inhibition at 1 µM came out at 75.3%.
For the compound `CCCCCCCCCC(C)(C)C(=O)Nc1c(C)c2c(c(NC(N)=O)c1C)NCC2` [Example 27, N-(4,6-dimethyl-7-ureidoindolin-5-yl)-2,2-dimethylundecanamide], in the test with hepatic ACAT, the “Hepatic ACAT inhibitory ratio (%)” value amounted to 78.6%.
As for `CCCCCCCCS(=O)(=O)Nc1c(C)c(NC(=O)C(C)(C)C)c(C)c2c1NCC2` [Example 29, N-[4,6-dimethyl-7-(1-octanesulfonylamino)indolin-5-yl]-2,2-dimethylpropanamide], the “Hepatic ACAT inhibitory ratio (%)” value with hepatic ACAT is 79.5%.
`Cc1c2c(c(NC(=O)C(C)(C)C)c(C)c1NS(N)(=O)=O)N(C1CCCC1)CC2.Cl` [Example 43, N-(1-cyclopentyl-4,6-dimethyl-5-sulfamoylaminoindolin-7-yl)-2,2-dimethylpropanamide hydrochloride]: the “Hepatic ACAT inhibitory ratio (%)” value in the test with hepatic ACAT worked out at 90.9%. For the same compound, the inhibition at 1 µM in test [1] stood at 58.7%.
In the case of `CCOCCN1CCc2c(C)c(NS(N)(=O)=O)c(C)c(NC(=O)C(C)(C)C)c21.Cl` [Example 46, N-[1-(2-ethoxyethyl)-4,6-dimethyl-5-sulfamoylaminoindolin-7-yl]-2,2-dimethylpropanamide hydrochloride], in the test on hepatic ACAT, the “Hepatic ACAT inhibitory ratio (%)” value amounted to 89.2%. Further, the inhibition at 1 µM in test [1] was determined as 59.1%.
With `CCCN1c2c(c(C)c(NS(N)(=O)=O)c(C)c2NC(=O)C(C)(C)C)CC1COC.Cl` (centres unmarked) [Example 50, N-(2-methoxymethyl-4,6-dimethyl-1-propyl-5-sulfamoylaminoindolin-7-yl)-2,2-dimethylpropanamide hydrochloride], in the test with hepatic ACAT, the “Hepatic ACAT inhibitory ratio (%)” value is reported as 86.2%. Moreover, the inhibition at 1 µM in test [1] came to 73.6%.
As to `CCCN1c2c(c(C)c(NS(N)(=O)=O)c(C)c2NC(=O)C(C)(C)C)CC1COCC` (centres unmarked) [Example 51, N-(2-ethoxymethyl-4,6-dimethyl-1-propyl-5-sulfamoylaminoindolin-7-yl)-2,2-dimethylpropanamide hydrochloride], in test [1], the inhibition at 1 µM was 86%.
Consider `CCOCCN1c2c(c(C)c(NS(N)(=O)=O)c(C)c2NC(=O)C(C)(C)C)CC1C` (centres unmarked) [Example 54, N-[1-(2-ethoxyethyl)-2,4,6-trimethyl-5-sulfamoylaminoindolin-7-yl]-2,2-dimethylpropanamide hydrochloride], for which the inhibition at 1 µM in test [1] was 64.5%.
As to `CCCN1c2c(c(C)c(NS(N)(=O)=O)c(C)c2NC(=O)C(C)(C)C)CC1CSC.Cl` (centres unmarked) [Example 57, N-(4,6-dimethyl-2-methylthiomethyl-1-propyl-5-sulfamoylaminoindolin-7-yl)-2,2-dimethylpropanamide hydrochloride], in the test on hepatic ACAT, the “Hepatic ACAT inhibitory ratio (%)” value is listed as 94.2%. Besides, the inhibition at 1 µM in test [1] amounted to 79.9%.
With `CCCN1c2c(c(C)c(NS(N)(=O)=O)c(C)c2NC(=O)C(C)(C)C)CC1CSCC.Cl` (centres unmarked) [Example 59, N-(2-ethylthiomethyl-4,6-dimethyl-1-propyl-5-sulfamoylaminoindolin-7-yl)-2,2-dimethylpropanamide hydrochloride], in the test on hepatic ACAT, the “Hepatic ACAT inhibitory ratio (%)” value is 98.1%. Further, in test [1], the inhibition at 1 µM amounted to 92.1%.
With `CCSCCN1CCc2c(C)c(NS(N)(=O)=O)c(C)c(NC(=O)C(C)(C)C)c21.Cl` [Example 60, N-[1-(2-ethylthioethyl)-4,6-dimethyl-5-sulfamoylaminoindolin-7-yl]-2,2-dimethylpropanamide hydrochloride], the “Hepatic ACAT inhibitory ratio (%)” value in the test with hepatic ACAT was determined as 97.2%.
Consider `CSCCN1CCc2c(C)c(NS(N)(=O)=O)c(C)c(NC(=O)C(C)(C)C)c21.Cl` [Example 61, N-[4,6-dimethyl-1-(2-methylthioethyl)-5-sulfamoylaminoindolin-7-yl]-2,2-dimethylpropanamide hydrochloride], for which the “Hepatic ACAT inhibitory ratio (%)” value in the test with hepatic ACAT amounted to 95.4%.
